Data as given in paper PMC5218480 (PLoS ONE, 2017).

Test system: MV-4-11 cells
Assay: Gene expression microarray analysis (Affymetrix PrimeView) and GSEA
Format: cell-based, human
Set-up: RFU PODN (11730768_x_at) / Fold change /veh PODN (11730768_x_at) / RFU LINC00158 (11744669_a_at) / Fold change /veh LINC00158 (11744669_a_at) / RFU DUSP10 (11751237_a_at) / Fold change /veh DUSP10 (11751237_a_at) / RFU ID3 (11757404_x_at) / Fold change /veh ID3 (11757404_x_at) / RFU PLEKHG5 (11737974_s_at) / Fold change /veh PLEKHG5 (11737974_s_at) / RFU LRRC4B (11730491_at) / Fold change /veh LRRC4B (11730491_at) / RFU GIMAP4 (11747438_a_at) / Fold change /veh GIMAP4 (11747438_a_at) / RFU KRT8 (11758183_x_at) / Fold change /veh KRT8 (11758183_x_at) / RFU CNN1 (11734310_a_at) / Fold change /veh CNN1 (11734310_a_at) / RFU VPS37D (11726825_at) / Fold change /veh VPS37D (11726825_at) / RFU C10orf10 (11716522_x_at) / Fold change /veh C10orf10 (11716522_x_at) / RFU KIR2DL2 /// KIR2DL4 /// KIR2DL5A /// KIR2DL5B /// KIR2DS1 /// KIR2DS2 /// KIR2DS3 /// KIR2DS4 /// KIR3DL3 /// KIR3DL3 /// KIR3DS1 (11738374_at) / Fold change /veh KIR2DL2 /// KIR2DL4 /// KIR2DL5A /// KIR2DL5B /// KIR2DS1 /// KIR2DS2 /// KIR2DS3 /// KIR2DS4 /// KIR3DL3 /// KIR3DL3 /// KIR3DS1 (11738374_at) / RFU C1QL1 (11718748_at) / Fold change /veh C1QL1 (11718748_at) / RFU TMPRSS4 (11747572_a_at) / Fold change /veh TMPRSS4 (11747572_a_at) / RFU HAMP (11756126_x_at) / Fold change /veh HAMP (11756126_x_at) / RFU RNFT2 (11725882_a_at) / Fold change /veh RNFT2 (11725882_a_at) / RFU NR4A2 (11747474_a_at) / Fold change /veh NR4A2 (11747474_a_at) / RFU ABCC12 (11746883_a_at) / Fold change /veh ABCC12 (11746883_a_at) / RFU TMEM136 (11760407_x_at) / Fold change /veh TMEM136 (11760407_x_at) / RFU CLDN22 /// WWC2 (11732394_at) / Fold change /veh CLDN22 /// WWC2 (11732394_at) / RFU HLA-DPB1 (11760878_x_at) / Fold change /veh HLA-DPB1 (11760878_x_at) / RFU SPINT1 (11716480_a_at) / Fold change /veh SPINT1 (11716480_a_at) / RFU GAP43 (11754022_s_at) / Fold change /veh GAP43 (11754022_s_at) / RFU A4GNT (11735810_at) / Fold change /veh A4GNT (11735810_at) / RFU PRB3 (11715151_x_at) / Fold change /veh PRB3 (11715151_x_at) / RFU TUBB4B (11761932_at) / Fold change /veh TUBB4B (11761932_at) / RFU CAPN14 (11732068_a_at) / Fold change /veh CAPN14 (11732068_a_at) / RFU TMCC2 (11721928_a_at) / Fold change /veh TMCC2 (11721928_a_at) / RFU IRGQ (11745062_a_at) / Fold change /veh IRGQ (11745062_a_at) / RFU FAM174B (11720279_a_at) / Fold change /veh FAM174B (11720279_a_at) / RFU TMPRSS4 (11748680_a_at) / Fold change /veh TMPRSS4 (11748680_a_at) / RFU FAM212B (11763350_a_at) / Fold change /veh FAM212B (11763350_a_at) / RFU PLEKHG5 (11743358_a_at) / Fold change /veh PLEKHG5 (11743358_a_at) / RFU ZSCAN30 (11745921_a_at) / Fold change /veh ZSCAN30 (11745921_a_at) / RFU CMKLR1 (11741424_a_at) / Fold change /veh CMKLR1 (11741424_a_at) / RFU LOC101060620 /// MAPK8IP1 (11723275_at) / Fold change /veh LOC101060620 /// MAPK8IP1 (11723275_at) / RFU SPTSSB (11747773_x_at) / Fold change /veh SPTSSB (11747773_x_at) / RFU PRSS12 (11739890_at) / Fold change /veh PRSS12 (11739890_at) / RFU BIN1 (11741810_x_at) / Fold change /veh BIN1 (11741810_x_at) / RFU WNT11 (11732464_a_at) / Fold change /veh WNT11 (11732464_a_at) / RFU C10orf10 (11716521_a_at) / Fold change /veh C10orf10 (11716521_a_at) / RFU C5orf56 (11738089_at) / Fold change /veh C5orf56 (11738089_at) / RFU CYB561 (11721691_x_at) / Fold change /veh CYB561 (11721691_x_at) / RFU ANKRD19P (11752326_a_at) / Fold change /veh ANKRD19P (11752326_a_at) / RFU OR2T12 /// OR2T33 /// OR2T8 (11738714_s_at) / Fold change /veh OR2T12 /// OR2T33 /// OR2T8 (11738714_s_at) / RFU VCAN (11748164_a_at) / Fold change /veh VCAN (11748164_a_at) / RFU JSRP1 (11732532_at) / Fold change /veh JSRP1 (11732532_at) / RFU KRTAP10-11 (11738290_x_at) / Fold change /veh KRTAP10-11 (11738290_x_at) / RFU MYO3A (11730013_a_at) / Fold change /veh MYO3A (11730013_a_at) / RFU EBF3 (11725865_a_at) / Fold change /veh EBF3 (11725865_a_at) / RFU CAMK2N1 (11719241_x_at) / Fold change /veh CAMK2N1 (11719241_x_at) / RFU C5orf56 (11738088_a_at) / Fold change /veh C5orf56 (11738088_a_at) / RFU OLFML3 (11715873_a_at) / Fold change /veh OLFML3 (11715873_a_at) / RFU LOC100653217 /// NTM (11731650_a_at) / Fold change /veh LOC100653217 /// NTM (11731650_a_at) / RFU MAPK11 (11762145_a_at) / Fold change /veh MAPK11 (11762145_a_at) / RFU FIZ1 (11724087_x_at) / Fold change /veh FIZ1 (11724087_x_at) / RFU OASL (11726364_x_at) / Fold change /veh OASL (11726364_x_at) / RFU SOX15 (11748057_x_at) / Fold change /veh SOX15 (11748057_x_at) / RFU CD79A (11719716_a_at) / Fold change /veh CD79A (11719716_a_at) / RFU HIST1H1D (11736915_at) / Fold change /veh HIST1H1D (11736915_at) / RFU CASKIN2 (11723855_a_at) / Fold change /veh CASKIN2 (11723855_a_at) / RFU LOC730098 (11760151_x_at) / Fold change /veh LOC730098 (11760151_x_at) / RFU OR4N2 (11742367_at) / Fold change /veh OR4N2 (11742367_at) / RFU PRRT2 (11749266_a_at) / Fold change /veh PRRT2 (11749266_a_at) / RFU SNX32 (11753110_a_at) / Fold change /veh SNX32 (11753110_a_at) / RFU CDHR5 (11726645_a_at) / Fold change /veh CDHR5 (11726645_a_at) / RFU RCAN1 (11760418_a_at) / Fold change /veh RCAN1 (11760418_a_at) / RFU FAM167A (11723789_a_at) / Fold change /veh FAM167A (11723789_a_at) / RFU FAM26E (11764081_at) / Fold change /veh FAM26E (11764081_at) / RFU ISYNA1 (11749810_s_at) / Fold change /veh ISYNA1 (11749810_s_at) / RFU ACY1 (11761880_at) / Fold change /veh ACY1 (11761880_at) / RFU 11764098_at / Fold change /veh 11764098_at / RFU SAMD14 (11745864_x_at) / Fold change /veh SAMD14 (11745864_x_at) / RFU NPB (11741838_a_at) / Fold change /veh NPB (11741838_a_at) / RFU TMPRSS6 (11731388_a_at) / Fold change /veh TMPRSS6 (11731388_a_at) / RFU KRTAP10-2 (11738614_at) / Fold change /veh KRTAP10-2 (11738614_at) / RFU ARHGAP8 /// PRR5-ARHGAP8 (11727945_x_at) / Fold change /veh ARHGAP8 /// PRR5-ARHGAP8 (11727945_x_at) / RFU KRTAP5-7 /// NADSYN1 (11734609_at) / Fold change /veh KRTAP5-7 /// NADSYN1 (11734609_at) / RFU RASL12 (11751679_a_at) / Fold change /veh RASL12 (11751679_a_at) / RFU CDKN2B (11736163_a_at) / Fold change /veh CDKN2B (11736163_a_at) / RFU PRF1 (11729649_at) / Fold change /veh PRF1 (11729649_at) / RFU, ZNF638 /// ZNF638-IT1 / Fold change vs veh, ZNF638 /// ZNF638-IT1 / RFU, PANK3 / Fold change vs veh, PANK3 / RFU, SH3YL1 / Fold change vs veh, SH3YL1 / RFU, ZEB2 / Fold change vs veh, ZEB2 / RFU, NRIP1 / Fold change vs veh, NRIP1 / RFU, PTTG1IP / Fold change vs veh, PTTG1IP / RFU, CAPN2 / Fold change vs veh, CAPN2 / RFU, MED14 / Fold change vs veh, MED14 / RFU, SNORA58 / Fold change vs veh, SNORA58 / RFU, C1orf63 / Fold change vs veh, C1orf63 / RFU, LRRFIP1 / Fold change vs veh, LRRFIP1 / RFU, NDUFAF7 / Fold change vs veh, NDUFAF7 / RFU, SLC12A2 / Fold change vs veh, SLC12A2 / RFU, IBTK / Fold change vs veh, IBTK / RFU, ESF1 / Fold change vs veh, ESF1 / Fold change vs veh, TMEM50B / RFU, TAOK1 / Fold change vs veh, TAOK1 / RFU, ACBD3 / Fold change vs veh, ACBD3 / RFU, TMA16 / Fold change vs veh, TMA16 / RFU, RWDD3 / Fold change vs veh, RWDD3 / RFU, BCAT1 / Fold change vs veh, BCAT1 / RFU, EDEM3 / Fold change vs veh, EDEM3 / RFU, TMEM33 / Fold change vs veh, TMEM33 / RFU, WDR75 / Fold change vs veh, WDR75 / RFU, AHCTF1 / Fold change vs veh, AHCTF1 / RFU, TFRC / Fold change vs veh, TFRC / RFU, ZDHHC17 / Fold change vs veh, ZDHHC17 / RFU, NOM1 / Fold change vs veh, NOM1 / RFU, ARL8B / Fold change vs veh, ARL8B / RFU, ZBTB11 / Fold change vs veh, ZBTB11 / RFU, TAMM41 / Fold change vs veh, TAMM41 / RFU, KIAA1704 /// LOC100996395 / Fold change vs veh, KIAA1704 /// LOC100996395 / RFU, ING1 / Fold change vs veh, ING1 / RFU, TRMT61B / Fold change vs veh, TRMT61B / RFU, FUBP3 / Fold change vs veh, FUBP3 / RFU, TP53 / Fold change vs veh, TP53 / RFU, TNKS2 / Fold change vs veh, TNKS2 / RFU, ZFP14 / Fold change vs veh, ZFP14 / RFU, ACTR2 / Fold change vs veh, ACTR2 / RFU, PPP3R1 / Fold change vs veh, PPP3R1 / RFU, PIK3R1 / Fold change vs veh, PIK3R1 / RFU, HNRNPA1 / Fold change vs veh, HNRNPA1 / RFU, RNF170 / Fold change vs veh, RNF170 / RFU, ZNF28 / Fold change vs veh, ZNF28 / RFU, RNGTT / Fold change vs veh, RNGTT / RFU, OGT / Fold change vs veh, OGT / RFU, BRD1 / Fold change vs veh, BRD1 / RFU, MARS / Fold change vs veh, MARS / RFU, ZNF655 / Fold change vs veh, ZNF655 / RFU, FAHD1 / Fold change vs veh, FAHD1 / RFU, BDP1 / Fold change vs veh, BDP1 / RFU, LRRCC1 / Fold change vs veh, LRRCC1 / RFU, ARID1A / Fold change vs veh, ARID1A / RFU, ZNF146 / Fold change vs veh, ZNF146 / RFU, ZNF330 / Fold change vs veh, ZNF330 / RFU, GPN3 / Fold change vs veh, GPN3 / RFU, C9orf123 / Fold change vs veh, C9orf123 / RFU, N4BP2L2 / Fold change vs veh, N4BP2L2 / RFU, ARFIP1 / Fold change vs veh, ARFIP1 / RFU, FAM179B / Fold change vs veh, FAM179B / RFU, BCL10 / Fold change vs veh, BCL10 / RFU, UHRF1BP1L / Fold change vs veh, UHRF1BP1L / RFU, BET1 / Fold change vs veh, BET1 / RFU, CNOT2 / Fold change vs veh, CNOT2 / RFU, ZNF268 / Fold change vs veh, ZNF268 / Fold change vs veh, ZNF507 / RFU, DGCR2 / Fold change vs veh, DGCR2 / RFU, WDSUB1 / Fold change vs veh, WDSUB1 / Fold change vs veh, HSP90B1 /// MIR3652 / RFU, ADSS / Fold change vs veh, ADSS / RFU, GK / Fold change vs veh, GK / RFU, ZNF148 / Fold change vs veh, ZNF148 / RFU, TAF9 / Fold change vs veh, TAF9 / RFU, SLC1A5 / Fold change vs veh, SLC1A5 / RFU, SLMO2 / Fold change vs veh, SLMO2 / RFU, ABCC4 / Fold change vs veh, ABCC4 / RFU, LOC101060439 /// RAP1B / Fold change vs veh, LOC101060439 /// RAP1B / RFU, RFX7 / Fold change vs veh, RFX7 / RFU, GTPBP10 / Fold change vs veh, GTPBP10 / RFU, CNEP1R1 / Fold change vs veh, CNEP1R1 / RFU, BIVM-ERCC5 /// ERCC5 / Fold change vs veh, BIVM-ERCC5 /// ERCC5 / RFU, ILF3 / Fold change vs veh, ILF3 / RFU 11762660_at / Fold change /veh 11762660_at / RFU VCAN (11757783_s_at) / Fold change /veh VCAN (11757783_s_at) / RFU DDX43 (11728927_at) / Fold change /veh DDX43 (11728927_at) / RFU KRT8 (11758188_x_at) / Fold change /veh KRT8 (11758188_x_at) / RFU NKD1 (11759106_at) / Fold change /veh NKD1 (11759106_at) / RFU SRD5A1 (11742802_a_at) / Fold change /veh SRD5A1 (11742802_a_at) / RFU TPSAB1 /// TPSB2 (11721975_s_at) / Fold change /veh TPSAB1 /// TPSB2 (11721975_s_at) / RFU GSTM3 (11746129_a_at) / Fold change /veh GSTM3 (11746129_a_at) / RFU IL23R (11737362_x_at) / Fold change /veh IL23R (11737362_x_at) / RFU TMEM51 (11727254_a_at) / Fold change /veh TMEM51 (11727254_a_at) / RFU PIWIL2 (11732686_x_at) / Fold change /veh PIWIL2 (11732686_x_at) / RFU ORM1 (11744905_x_at) / Fold change /veh ORM1 (11744905_x_at) / RFU CCDC152 (11743942_at) / Fold change /veh CCDC152 (11743942_at) / RFU ECM1 (11717891_a_at) / Fold change /veh ECM1 (11717891_a_at) / RFU IL23R (11748794_a_at) / Fold change /veh IL23R (11748794_a_at) / RFU TNFAIP8L3 (11732012_x_at) / Fold change /veh TNFAIP8L3 (11732012_x_at) / RFU MBOAT4 (11741988_at) / Fold change /veh MBOAT4 (11741988_at) / RFU 11764193_at / Fold change /veh 11764193_at / RFU TMEM53 (11763286_at) / Fold change /veh TMEM53 (11763286_at) / RFU MAGEB2 (11727129_at) / Fold change /veh MAGEB2 (11727129_at) / RFU TMEM200A (11744735_a_at) / Fold change /veh TMEM200A (11744735_a_at) / RFU CCDC152 (11751479_a_at) / Fold change /veh CCDC152 (11751479_a_at) / RFU FAM211A (11726209_a_at) / Fold change /veh FAM211A (11726209_a_at) / RFU RGS16 (11746705_a_at) / Fold change /veh RGS16 (11746705_a_at) / RFU VCAN (11755009_s_at) / Fold change /veh VCAN (11755009_s_at) / RFU RHOB (11743442_s_at) / Fold change /veh RHOB (11743442_s_at) / RFU RGS16 (11720943_a_at) / Fold change /veh RGS16 (11720943_a_at) / RFU RGS16 (11720944_at) / Fold change /veh RGS16 (11720944_at) / RFU, VPS4B / Fold change vs veh, VPS4B / RFU, CREB1 / Fold change vs veh, CREB1 / RFU, DNAJC13 / Fold change vs veh, DNAJC13 / RFU, GNAQ / Fold change vs veh, GNAQ / RFU, CDK5R1 / Fold change vs veh, CDK5R1 / RFU, ZRANB3 / Fold change vs veh, ZRANB3 / RFU, CUL4A / Fold change vs veh, CUL4A / RFU, CCNY / Fold change vs veh, CCNY / RFU, UFL1 / Fold change vs veh, UFL1 / RFU, COG3 / Fold change vs veh, COG3 / RFU, DIAPH2 / Fold change vs veh, DIAPH2 / RFU, SKA2 / Fold change vs veh, SKA2 / RFU, AFF3 / Fold change vs veh, AFF3 / RFU, LMF1 / Fold change vs veh, LMF1 / RFU, IPO11 / Fold change vs veh, IPO11 / RFU, DFFB / Fold change vs veh, DFFB / RFU, FOXP1 / Fold change vs veh, FOXP1 / RFU, CARD8 / Fold change vs veh, CARD8 / RFU, STRN3 / Fold change vs veh, STRN3 / RFU, ADK / Fold change vs veh, ADK / RFU, RASSF2 / Fold change vs veh, RASSF2 / RFU, WIPF1 / Fold change vs veh, WIPF1 / RFU, LARP1B / Fold change vs veh, LARP1B / RFU, RASA1 / Fold change vs veh, RASA1 / RFU, RB1 / Fold change vs veh, RB1 / RFU, PPFIA1 / Fold change vs veh, PPFIA1 / RFU, MAT2A / Fold change vs veh, MAT2A / RFU, CCT5 / Fold change vs veh, CCT5 / RFU, WDR92 / Fold change vs veh, WDR92 / RFU, CUX1 / Fold change vs veh, CUX1 / RFU, TTC7A / Fold change vs veh, TTC7A / RFU, TMEM135 / Fold change vs veh, TMEM135 / RFU, DEPTOR / Fold change vs veh, DEPTOR / RFU, CPM / Fold change vs veh, CPM / RFU, DNAJB6 / Fold change vs veh, DNAJB6 / RFU, CACNA2D3 / Fold change vs veh, CACNA2D3 / RFU, DTX4 / Fold change vs veh, DTX4 / RFU, TFCP2 / Fold change vs veh, TFCP2 / RFU, GMCL1 /// GMCL1P1 / Fold change vs veh, GMCL1 /// GMCL1P1 / RFU, AEBP2 / Fold change vs veh, AEBP2 / RFU, SNHG1 /// SNORD22 /// SNORD25 /// SNORD26 /// SNORD27 /// SNORD28 /// SNORD29 /// SNORD31 / Fold change vs veh, SNHG1 /// SNORD22 /// SNORD25 /// SNORD26 /// SNORD27 /// SNORD28 /// SNORD29 /// SNORD31 / Fold change (Aza/veh), C12orf56 (ProbeSet 11735607_a_at) / Fold change (ACY-1035/veh), C12orf56 (ProbeSet 11735607_a_at) / Fold change (Aza/veh), FGFR1OP (ProbeSet 11751329_s_at) / Fold change (ACY-1035/veh), FGFR1OP (ProbeSet 11751329_s_at) / Fold change (Aza/veh), VPS36 (ProbeSet 11739960_a_at) / Fold change (ACY-1035/veh), VPS36 (ProbeSet 11739960_a_at) / RFU SYPL1 (11715823_x_at) / Fold change /veh SYPL1 (11715823_x_at) / RFU IGFBP7 (11715501_s_at) / Fold change /veh IGFBP7 (11715501_s_at) / RFU REEP3 (11722064_at) / Fold change /veh REEP3 (11722064_at) / RFU IGLL1 (11728026_x_at) / Fold change /veh IGLL1 (11728026_x_at): dose or concentration left out as unconfirmed
Settings: ProbeSet 11758440_s_at; LIST B

SMILES: Nc1ncn([C@@H]2O[C@H](CO)[C@@H](O)[C@H]2O)c(=O)n1 [azacitidine]
- RFU, RFX7: 45.74 RFU
